The values that follow are results of earlier work, collected in patent US11083704B2, “Method of administering nitroxyl donating compounds” (Cardioxyl Pharmaceuticals, Inc., priority 2017, dated 2021).

The conditions of data set [1]: preclinical models and Phase I/IIa studies.
For data set [2] the following is noted: healthy patients and patients hospitalized with advanced heart failure.

Regarding `Cc1ccc(S(=O)(=O)NO)o1` [N-hydroxy-5-methylfuran-2-sulfonamide], in data set [1], the inotropy result is recorded as “increased inotropy”, the lusitropy result is “improved lusitropy” and the vasodilation result is “peripheral vasodilation”. The “safety and tolerability of infusions” value in data set [2] is “safe and well-tolerated”.
